# Laboratory results taken from patent US6492416B1, “4,5-diaryl-3(2H)-furanone derivatives as cyclooxygenase-2 inhibitors” (Pacific Corporation, priority 1999, dated 2002).
# Columns and labels:
# COX-1 = biological target: T1, COX-1 (Mus musculus, UniProt P22437); assay: Evaluation of COX-1 activity: PGE2 formation in mouse peritoneal macrophages without aspirin and LPS treatment; assay type: cell-based
# T1 sequence (P22437 27-602): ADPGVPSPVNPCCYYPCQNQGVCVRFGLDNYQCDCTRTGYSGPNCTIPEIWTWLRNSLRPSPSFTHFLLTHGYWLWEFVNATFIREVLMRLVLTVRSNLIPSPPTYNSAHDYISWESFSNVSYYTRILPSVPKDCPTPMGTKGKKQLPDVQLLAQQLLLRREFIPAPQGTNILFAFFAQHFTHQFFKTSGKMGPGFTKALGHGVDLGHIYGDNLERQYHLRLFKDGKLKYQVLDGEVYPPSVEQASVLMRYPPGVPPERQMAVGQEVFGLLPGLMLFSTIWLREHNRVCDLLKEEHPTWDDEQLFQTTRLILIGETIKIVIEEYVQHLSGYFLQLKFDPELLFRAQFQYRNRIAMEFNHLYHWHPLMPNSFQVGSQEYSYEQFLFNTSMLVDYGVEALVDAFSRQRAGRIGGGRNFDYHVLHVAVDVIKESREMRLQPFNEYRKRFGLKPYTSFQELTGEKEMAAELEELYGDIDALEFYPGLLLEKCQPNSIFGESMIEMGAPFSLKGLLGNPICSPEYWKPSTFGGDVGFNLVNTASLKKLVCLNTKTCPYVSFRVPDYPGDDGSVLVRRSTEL
# Method in brief: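 Peritoneal macrophages from C57BL/6 mice, without aspirin or LPS treatment, were plated at 1×10^6 cells/ml and fixed 2 h at 37 °C. Cells were preincubated 10 min, then given 10 μM arachidonic acid plus compound for 10 min; PGE2 was measured by RIA or EIA. IC50 came from 4–5 concentrations.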
# [1] = tested on: male Sprague-Dawley (SD) rats; assay: Carrageenan-induced foot edema in rats (CFE); assay type: in vivo; conditions: oral dose 3 mg/kg body weight, rat, paw volume 3 hours after Carrageenan
# Method: An appropriate amount of a compound of this invention suspended in 1% methylcellulose (MC) solution was administered to male Sprague-Dawley (SD) rats weighing 150˜200 g by oral gavage. The volume of the administered vehicle for a compound of this invention was controlled to be smaller than 10 ml/kg body weight of the animal. One hour later, 0.1 ml of 1% Carrageenan saline solution was directly injected into the right paw of the rats to induce edema in the paw. The paw volumes at 0 hour and at 3 hours after the injection of Carrageenan were measured by using a displacement plethysmometer (Ugo Basile, Italy). The paw volumes were used to calculate % inhibition of CFE by an amount of a compound of this invention according to the following equation.
# % Inhibition of CFE=(1−Δtreated/Δcontrol)×100
# wherein Δtreated=[paw volume at three hours after the Carrageenan injection−paw volume right after Carrageenan injection] for a drug-administered rat, and Δcontrol=[paw volume at three hours after the Carrageenan injection−paw volume right after Carrageenan injection] for a rat without drug administration.
# In order to determine the inhibitory activity of a compound of this invention at a dose, usually 5 to 8 animals were used both for drug-treated group and for control group.
# COX-2 = biological target: T2, COX-2 (Mus musculus, UniProt Q05769); assay: Evaluation of COX-2 activity: PGE2 formation in aspirin-treated, LPS-stimulated mouse peritoneal macrophages; assay type: cell-based
# T2 sequence (Q05769 18-604): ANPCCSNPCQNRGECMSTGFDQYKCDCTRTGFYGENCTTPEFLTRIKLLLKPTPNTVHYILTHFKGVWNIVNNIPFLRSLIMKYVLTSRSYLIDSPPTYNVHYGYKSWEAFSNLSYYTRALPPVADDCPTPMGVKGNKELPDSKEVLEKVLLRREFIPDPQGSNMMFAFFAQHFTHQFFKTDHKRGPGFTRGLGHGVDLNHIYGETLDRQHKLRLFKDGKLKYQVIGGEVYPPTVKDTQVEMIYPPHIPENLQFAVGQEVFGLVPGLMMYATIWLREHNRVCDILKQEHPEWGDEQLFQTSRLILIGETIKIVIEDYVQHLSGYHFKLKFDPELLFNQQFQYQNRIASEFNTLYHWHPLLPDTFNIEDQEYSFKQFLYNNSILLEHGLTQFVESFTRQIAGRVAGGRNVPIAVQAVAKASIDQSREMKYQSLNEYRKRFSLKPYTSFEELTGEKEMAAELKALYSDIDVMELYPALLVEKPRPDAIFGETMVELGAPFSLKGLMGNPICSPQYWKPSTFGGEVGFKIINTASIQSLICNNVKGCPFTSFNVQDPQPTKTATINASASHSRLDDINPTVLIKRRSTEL
# Method in brief: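 C57BL/6 peritoneal macrophages treated with 500 μM aspirin to block COX-1, adhered, then stimulated with 10 μg/ml LPS for 16 h at 37 °C to induce COX-2.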
Molecule,"IC50, μg/ml COX-1 (COX-1) [µg/mL]",% Inhibition (CFE) [1] [%],"IC50, μg/ml COX-2 (COX-2) [µg/mL]",melting point [°C],"IC50 (COX-1; read-out: IC50, μg/ml COX-1 (converted)) [µM]","IC50 (COX-2; read-out: IC50, μg/ml COX-2 (converted)) [µM]"
"5-{(aminosulfonyl)-3-fluorophenyl}-4-(3,5-difluorophenyl)-2,2-dimethyl-3(2H)-furanone [Example 312]",100,31,0.02,–,–,–
"Cn1cc(C2=C(c3ccc(S(C)(=O)=O)cc3)OC(C)(C)C2=O)cn1 [Example 20, 2,2-Dimethyl-4-{4-(1-N-methylpyrazolyl)}-5-{4-(methylsulfonyl)phenyl)-3(2H)-furanone]",–,36,–,114 to 115,–,–
"CC1(C)OC(c2ccc(S(N)(=O)=O)cc2)=C(c2cccc(C(F)(F)F)c2)C1=O [Example 23, 5-{4-(Aminosulfonyl)phenyl}-2,2-dimethyl-4-{3-(trifluoromethyl)phenyl}-3(2H)-furanone]",–,33,–,–,–,–
CC(C)c1ccc(C2=C(c3ccc(S(C)(=O)=O)cc3)OC(C)(C)C2=O)cc1 [Example 84],3,25,0.03,121 to 123,–,–
CCSc1ccc(C2=C(c3ccc(S(N)(=O)=O)cc3)OC(C)(C)C2=O)cc1 [Example 146],0.83,24,0.0014,185,–,–
CC1(C)OC(c2ccc(S(N)(=O)=O)cc2)=C(c2ccccc2F)C1=O [Example 155],1.8,35,0.016,188 to 189,–,–
CC1(C)OC(c2ccc(S(N)(=O)=O)cc2)=C(c2cc(F)ccc2F)C1=O [Example 157],5.15,41,0.038,182 to 183,–,–
Cn1cc(C2=C(c3ccc(S(N)(=O)=O)cc3)OC(C)(C)C2=O)cn1 [Example 164],100,29,0.03,–,–,–
"C[S+]([O-])c1ccc(C2=C(c3cccc(F)c3)C(=O)C(C)(C)O2)cc1 (stereo not drawn) [Example 176, 2,2-dimethyl-4-(3-fluorophenyl)-5-{4-(methylsulfinyl)phenyl}-3(2H)-furanone]",–,23,1,143 to 144,–,–
"C[S+]([O-])c1ccc(C2=C(c3cc(F)cc(F)c3)C(=O)C(C)(C)O2)cc1 (stereo not drawn) [Example 177, 4-(3,5-Difluorophenyl)-2,2-dimethyl-5-{4-(methylsulfinyl)phenyl}-3(2H)-furanone]",30,37,5,133 to 134,–,–
CCC1(C)OC(c2ccc(S(C)(=O)=O)cc2)=C(c2cccc(Cl)c2)C1=O (stereo not drawn) [Example 195],–,28,–,94 to 95,12.8,0.0767
Cc1cccc(C2=C(c3ccc(S(C)(=O)=O)cc3)OC3(CCCC3)C2=O)c1 [Example 255],3,31,0.03,142 to 143,–,–
CC1(C)OC(c2ccc(S(C)(=O)=O)c(F)c2)=C(c2ccc(F)cc2)C1=O [Example 276],10,26,0.05,160 to 161,–,–
CC1(C)OC(c2ccc(S(C)(=O)=O)c(F)c2)=C(c2cccc(Cl)c2)C1=O [Example 278],30,27,0.05,108 to 109,–,–
"CC1(C)OC(c2ccc(S(C)(=O)=O)c(F)c2)=C(c2cccc(Cl)c2)C1=S [Example 385, 4-(3-Chlorophenyl)-2,2-dimethyl-5-{3-fluoro-4-(methylsulfonyl)phenyl}-(2H)-furan-3-thione]",0.05,–,0.03,105 to 106,–,–
